4 compounds from US8153807B2, “Inhibitors of 11-beta-hydroxysteroid dehydrogenase 1” (Eli Lilly and Company, priority 2006, dated 2012) can be followed below.

For experiment [1], the target named is T1, 11-β-HSD1 (Homo sapiens, UniProt P28845).
T1 construct: assay medium containing 12 ng/mL hTNFα to induce expression of 11-β-HSD1; endogenous in cells; host or cells: primary human aortic smooth muscle cells (AoSMC), induced with hTNFα
Briefly: Human aortic smooth muscle cell assay. The experiment is classed as cell-based. Conditions: primary human AoSMC, hTNFα-induced 11-β-HSD1, cortisol immunoassay. How it is done:
Human Aortic Smooth Muscle Cell Assay
Primary human aortic smooth muscle cells (AoSMC) are cultured in 5% FBS growth medium to a passage number of 6, then pelleted by centrifugation and resuspended at a density of 9×10^4 cells/mL in 0.5% FBS assay medium containing 12 ng/mL hTNFα to induce expression of 11-β-HSD1. Cells are seeded into 96-well tissue culture assay plates at 100 μL/well (9×10^3 cells/well) and incubated for 48 hours at 37° C., 5% CO2. Following induction, cells are incubated for 4 hours at 37° C., 5% CO2 in assay medium containing test compounds then treated with 10 μL/well of 10 μM cortisone solubilized in assay medium, and incubated for 16 hours at 37° C., 5% CO2. Medium from each well is transferred to a plate for subsequent analysis of cortisol using a competitive fluorescence resonance time resolved immunoassay. In solution, an allophycocyanin (APC)-cortisol conjugate and free cortisol analyte compete for binding to a mouse anti-cortisol antibody/Europium (Eu)-anti mouse IgG complex. Higher levels of free cortisol result in diminishing energy transfer from the Europium-IgG to the APC-cortisol complex resulting in less APC fluorescence. Fluorescent intensities for Europium and APC are measured using a LJL Analyst AD. Europium and APC excitation is measured using 360 nm excitation and 615 nm and 650 nm emission filters respectively. Time resolved parameters for Europuium were 1000 μs integration time with a 200 μs delay. APC parameters are set at 150 μs integration time with a 50 μs delay. Fluorescent intensities measured for APC are modified by dividing by the Eu fluorescence (APC/Eu). This ratio is then used to determine the unknown cortisol concentration by interpolation using a cortisol standard curve fitted with a 4-parameter logistic equation. These concentrations are then used to determine compound activity by plotting concentration versus % inhibition, fitting with a 4-parameter curve and reporting the IC50.

The subject of experiment [2] is cortisone conversion. Put plainly: Acute in vivo cortisone conversion assay. Conditions: Mus musculus; male C57BL/6 mice, oral dose 10 mg/kg, cortisone challenge 16 hours post dose, serum cortisol; read-out: % Inhibition after 16 hours (dose of 10 (mg/kg)). How it is done: Acute In Vivo Cortisone Conversion Assay
In general, compounds are dosed orally into mice, the mice are challenged with a subcutaneous injection of cortisone at a set timepoint after compound injection, and the blood of each animal is collected some time later. Separated serum is then isolated and analyzed for levels of cortisone and cortisol by LC-MS/MS, followed by calculation of mean cortisol and percent inhibition of each dosing group. Specifically, male C57BL/6 mice are obtained from Harlan Sprague Dawley at average weight of 25 grams. Exact weights are taken upon arrival and the mice randomized into groups of similar weights. Compounds are prepared in 1% w-w HEC, 0.25% w-w polysorbate 80, 0.05% w-w Dow Corning antifoam #1510-US at various doses based on assumed average weight of 25 grams. Compounds are dosed orally, 200 μl per animal, followed by a subcutaneous dose, 200 μl per animal, of 30 mg/kg cortisone at 1 to 24 hours post compound dose. At 10 minutes post cortisone challenge, each animal is euthanized for 1 minute in a CO2 chamber, followed by blood collection via cardiac puncture into serum separator tubes. Once fully clotted, tubes are spun at 2500×g, 4° C. for 15 minutes, the serum transferred to wells of 96-well plates (Corning Inc, Costar #4410, cluster tubes, 1.2 ml, polypropylene), and the plates are frozen at −20° C. until analysis by LC-MS/MS. For analysis, serum samples are thawed and the proteins are precipitated by the addition of acetonitrile containing d4-cortisol internal standard. Samples are vortex mixed and centrifuged. The supernatant is removed and dried under a stream of warm nitrogen. Extracts are reconstituted in methanol/water (1:1) and injected onto the LC-MS/MS system. The levels of cortisone and cortisol are assayed by selective reaction monitoring mode following positive ACPI ionization on a triple quadrupole mass spectrophotometer.

Experiment [3] addresses T2, 11-βHSD2 enzyme (Homo sapiens, UniProt P80365).
T2 sequence (P80365 1-405): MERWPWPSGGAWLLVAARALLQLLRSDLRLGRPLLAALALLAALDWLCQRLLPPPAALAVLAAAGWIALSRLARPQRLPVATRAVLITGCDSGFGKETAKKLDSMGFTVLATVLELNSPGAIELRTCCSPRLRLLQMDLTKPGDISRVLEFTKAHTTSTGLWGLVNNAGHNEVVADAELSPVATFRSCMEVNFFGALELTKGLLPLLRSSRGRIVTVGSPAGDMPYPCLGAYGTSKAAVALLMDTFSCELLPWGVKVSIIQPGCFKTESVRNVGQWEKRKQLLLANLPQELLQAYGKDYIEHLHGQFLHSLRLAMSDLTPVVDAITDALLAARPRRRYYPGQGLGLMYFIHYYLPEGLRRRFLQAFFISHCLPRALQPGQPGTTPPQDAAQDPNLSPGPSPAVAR
Put plainly: Selectivity against 11-βHSD2 in an enzyme assay similar to the 11β-HSD type 1 enzyme assay. Conditions: 11-βHSD1 versus 11-βHSD2 enzyme. In kind it is biochemical. On the procedure:
11β-HSD Type 1 Enzyme Assay
Human 11β-HSD type 1 activity is measured by assaying NADPH production by fluorescence assay. Solid compounds are dissolved in DMSO to a concentration of 10 mM. Twenty microliters of each are then transferred to a column of a 96-well polypropylene Nunc plate where they are further diluted 50-fold followed by subsequent two-fold titration, ten times across the plate with additional DMSO using a Tecan Genesis 200 automated system. Plates are then transferred to a Tecan Freedom 200 system with an attached Tecan Temo 96-well head and an Ultra 384 plate reader. Reagents are supplied in 96-well polypropylene Nunc plates and are dispensed individually into black 96-well Molecular Devices High Efficiency assay plates (40 μL/well capacity) in the following fashion: 9 μL/well of substrate (2.22 mM NADP, 55.5 μM Cortisol, 10 mM Tris, 0.25% Prionex, 0.1% Triton X100), 3 μL/well of water to compound wells or 3 μL to control and standard wells, 6 μL/well recombinant human 11β-HSD type 1 enzyme, 2 μL/well of compound dilutions. […] Plates are then shaken once more for 15 seconds then placed into an Ultra 384 microplate reader (355EX/460EM) for detection of NADPH fluorescence. […]

The structures appear in SMILES notation.

T1 sequence (P28845 whole entry): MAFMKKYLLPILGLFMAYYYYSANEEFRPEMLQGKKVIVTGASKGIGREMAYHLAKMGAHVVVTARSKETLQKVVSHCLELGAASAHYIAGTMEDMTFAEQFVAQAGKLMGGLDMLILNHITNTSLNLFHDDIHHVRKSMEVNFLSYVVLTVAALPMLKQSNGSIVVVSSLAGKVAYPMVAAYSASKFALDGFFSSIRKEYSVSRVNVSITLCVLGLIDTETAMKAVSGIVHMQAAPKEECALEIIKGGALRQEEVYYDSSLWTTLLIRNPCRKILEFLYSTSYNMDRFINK

As for `O=C1[C@H](Cc2c(Cl)cc(-c3ccc(F)cc3)cc2Cl)CCN1N1CCC(O)CC1` [Example 6, (R)-3-(3,5-Dichloro-4′-fluoro-biphenyl-4-ylmethyl)-1-(4-hydroxy-piperidin-1-yl)-pyrrolidin-2-one Trifluoro Acetate], it took 5.7 nM to reach half-maximal inhibition in experiment [1] (IC50). In addition, the inhibition at 10 mg/kg in experiment [2] came out at 55%.
`O=C(c1ccc(-c2cc(Cl)c(C[C@@H]3CCN(N4CCC(O)CC4)C3=O)c(Cl)c2)cc1)N1CCC(C(F)(F)F)CC1` [Example 7, (R)-3-[3,5-Dichloro-4′-(4-trifluoromethyl-piperidine-1-carbonyl)-biphenyl-4-ylmethyl]-1-(4-hydroxy-piperidin-1-yl)-pyrrolidin-2-one]: in experiment [1], the IC50 (commonly the concentration needed to halve the response being measured) stood at 14.3 nM. Also, the inhibition at 10 mg/kg in experiment [2] was 98%. Also, the “fold greater inhibition of 11-βHSD1 enzyme as compared to the inhibition of 11-βHSD2” value in experiment [3] worked out at 145 fold.
In experiment [1], `O=C(c1ccc(-c2cc(Cl)c(C[C@@H]3CCN(N4CCC(O)CC4)C3=O)c(Cl)c2)cc1)N1CCC(F)(F)CC1` [Example 8, (R)-3-[3,5-Dichloro-4′-(4,4-difluoro-piperidine-1-carbonyl)-biphenyl-4-ylmethyl]-1-(4-hydroxy-piperidin-1-yl)-pyrrolidin-2-one] registered an IC50 of 43 nM. For the same compound, the inhibition at 10 mg/kg in experiment [2] amounted to 94%.
On to `O=C(c1ccc(-c2cc(Cl)c(C[C@@H]3CCN(N4CCOCC4)C3=O)c(Cl)c2)cc1)N1CCC(C(F)(F)F)CC1` [Example 3, (R)-3-[3,5-Dichloro-4′-(4-trifluoromethyl-piperidine-1-carbonyl)-biphenyl-4-ylmethyl]-1-morpholin-4-yl-pyrrolidin-2-one], for which the IC50 in experiment [1] turned out to be 67 nM. The inhibition at 10 mg/kg in experiment [2] was determined as 82%.
